This experiment has as its target DNA-dependent protein kinase catalytic subunit (Homo sapiens, UniProt P78527). The experiment in a line: Inhibition of DNA-dependent protein kinase.

The structures appear in SMILES notation. Bounds are passed on as bounds.

In general, IC50 refers to the concentration that inhibits the measured activity by half. The low end stands for greater potency in that assay, the high end for weaker potency in that assay.

DNA-dependent protein kinase catalytic subunit, sequence (P78527 whole entry): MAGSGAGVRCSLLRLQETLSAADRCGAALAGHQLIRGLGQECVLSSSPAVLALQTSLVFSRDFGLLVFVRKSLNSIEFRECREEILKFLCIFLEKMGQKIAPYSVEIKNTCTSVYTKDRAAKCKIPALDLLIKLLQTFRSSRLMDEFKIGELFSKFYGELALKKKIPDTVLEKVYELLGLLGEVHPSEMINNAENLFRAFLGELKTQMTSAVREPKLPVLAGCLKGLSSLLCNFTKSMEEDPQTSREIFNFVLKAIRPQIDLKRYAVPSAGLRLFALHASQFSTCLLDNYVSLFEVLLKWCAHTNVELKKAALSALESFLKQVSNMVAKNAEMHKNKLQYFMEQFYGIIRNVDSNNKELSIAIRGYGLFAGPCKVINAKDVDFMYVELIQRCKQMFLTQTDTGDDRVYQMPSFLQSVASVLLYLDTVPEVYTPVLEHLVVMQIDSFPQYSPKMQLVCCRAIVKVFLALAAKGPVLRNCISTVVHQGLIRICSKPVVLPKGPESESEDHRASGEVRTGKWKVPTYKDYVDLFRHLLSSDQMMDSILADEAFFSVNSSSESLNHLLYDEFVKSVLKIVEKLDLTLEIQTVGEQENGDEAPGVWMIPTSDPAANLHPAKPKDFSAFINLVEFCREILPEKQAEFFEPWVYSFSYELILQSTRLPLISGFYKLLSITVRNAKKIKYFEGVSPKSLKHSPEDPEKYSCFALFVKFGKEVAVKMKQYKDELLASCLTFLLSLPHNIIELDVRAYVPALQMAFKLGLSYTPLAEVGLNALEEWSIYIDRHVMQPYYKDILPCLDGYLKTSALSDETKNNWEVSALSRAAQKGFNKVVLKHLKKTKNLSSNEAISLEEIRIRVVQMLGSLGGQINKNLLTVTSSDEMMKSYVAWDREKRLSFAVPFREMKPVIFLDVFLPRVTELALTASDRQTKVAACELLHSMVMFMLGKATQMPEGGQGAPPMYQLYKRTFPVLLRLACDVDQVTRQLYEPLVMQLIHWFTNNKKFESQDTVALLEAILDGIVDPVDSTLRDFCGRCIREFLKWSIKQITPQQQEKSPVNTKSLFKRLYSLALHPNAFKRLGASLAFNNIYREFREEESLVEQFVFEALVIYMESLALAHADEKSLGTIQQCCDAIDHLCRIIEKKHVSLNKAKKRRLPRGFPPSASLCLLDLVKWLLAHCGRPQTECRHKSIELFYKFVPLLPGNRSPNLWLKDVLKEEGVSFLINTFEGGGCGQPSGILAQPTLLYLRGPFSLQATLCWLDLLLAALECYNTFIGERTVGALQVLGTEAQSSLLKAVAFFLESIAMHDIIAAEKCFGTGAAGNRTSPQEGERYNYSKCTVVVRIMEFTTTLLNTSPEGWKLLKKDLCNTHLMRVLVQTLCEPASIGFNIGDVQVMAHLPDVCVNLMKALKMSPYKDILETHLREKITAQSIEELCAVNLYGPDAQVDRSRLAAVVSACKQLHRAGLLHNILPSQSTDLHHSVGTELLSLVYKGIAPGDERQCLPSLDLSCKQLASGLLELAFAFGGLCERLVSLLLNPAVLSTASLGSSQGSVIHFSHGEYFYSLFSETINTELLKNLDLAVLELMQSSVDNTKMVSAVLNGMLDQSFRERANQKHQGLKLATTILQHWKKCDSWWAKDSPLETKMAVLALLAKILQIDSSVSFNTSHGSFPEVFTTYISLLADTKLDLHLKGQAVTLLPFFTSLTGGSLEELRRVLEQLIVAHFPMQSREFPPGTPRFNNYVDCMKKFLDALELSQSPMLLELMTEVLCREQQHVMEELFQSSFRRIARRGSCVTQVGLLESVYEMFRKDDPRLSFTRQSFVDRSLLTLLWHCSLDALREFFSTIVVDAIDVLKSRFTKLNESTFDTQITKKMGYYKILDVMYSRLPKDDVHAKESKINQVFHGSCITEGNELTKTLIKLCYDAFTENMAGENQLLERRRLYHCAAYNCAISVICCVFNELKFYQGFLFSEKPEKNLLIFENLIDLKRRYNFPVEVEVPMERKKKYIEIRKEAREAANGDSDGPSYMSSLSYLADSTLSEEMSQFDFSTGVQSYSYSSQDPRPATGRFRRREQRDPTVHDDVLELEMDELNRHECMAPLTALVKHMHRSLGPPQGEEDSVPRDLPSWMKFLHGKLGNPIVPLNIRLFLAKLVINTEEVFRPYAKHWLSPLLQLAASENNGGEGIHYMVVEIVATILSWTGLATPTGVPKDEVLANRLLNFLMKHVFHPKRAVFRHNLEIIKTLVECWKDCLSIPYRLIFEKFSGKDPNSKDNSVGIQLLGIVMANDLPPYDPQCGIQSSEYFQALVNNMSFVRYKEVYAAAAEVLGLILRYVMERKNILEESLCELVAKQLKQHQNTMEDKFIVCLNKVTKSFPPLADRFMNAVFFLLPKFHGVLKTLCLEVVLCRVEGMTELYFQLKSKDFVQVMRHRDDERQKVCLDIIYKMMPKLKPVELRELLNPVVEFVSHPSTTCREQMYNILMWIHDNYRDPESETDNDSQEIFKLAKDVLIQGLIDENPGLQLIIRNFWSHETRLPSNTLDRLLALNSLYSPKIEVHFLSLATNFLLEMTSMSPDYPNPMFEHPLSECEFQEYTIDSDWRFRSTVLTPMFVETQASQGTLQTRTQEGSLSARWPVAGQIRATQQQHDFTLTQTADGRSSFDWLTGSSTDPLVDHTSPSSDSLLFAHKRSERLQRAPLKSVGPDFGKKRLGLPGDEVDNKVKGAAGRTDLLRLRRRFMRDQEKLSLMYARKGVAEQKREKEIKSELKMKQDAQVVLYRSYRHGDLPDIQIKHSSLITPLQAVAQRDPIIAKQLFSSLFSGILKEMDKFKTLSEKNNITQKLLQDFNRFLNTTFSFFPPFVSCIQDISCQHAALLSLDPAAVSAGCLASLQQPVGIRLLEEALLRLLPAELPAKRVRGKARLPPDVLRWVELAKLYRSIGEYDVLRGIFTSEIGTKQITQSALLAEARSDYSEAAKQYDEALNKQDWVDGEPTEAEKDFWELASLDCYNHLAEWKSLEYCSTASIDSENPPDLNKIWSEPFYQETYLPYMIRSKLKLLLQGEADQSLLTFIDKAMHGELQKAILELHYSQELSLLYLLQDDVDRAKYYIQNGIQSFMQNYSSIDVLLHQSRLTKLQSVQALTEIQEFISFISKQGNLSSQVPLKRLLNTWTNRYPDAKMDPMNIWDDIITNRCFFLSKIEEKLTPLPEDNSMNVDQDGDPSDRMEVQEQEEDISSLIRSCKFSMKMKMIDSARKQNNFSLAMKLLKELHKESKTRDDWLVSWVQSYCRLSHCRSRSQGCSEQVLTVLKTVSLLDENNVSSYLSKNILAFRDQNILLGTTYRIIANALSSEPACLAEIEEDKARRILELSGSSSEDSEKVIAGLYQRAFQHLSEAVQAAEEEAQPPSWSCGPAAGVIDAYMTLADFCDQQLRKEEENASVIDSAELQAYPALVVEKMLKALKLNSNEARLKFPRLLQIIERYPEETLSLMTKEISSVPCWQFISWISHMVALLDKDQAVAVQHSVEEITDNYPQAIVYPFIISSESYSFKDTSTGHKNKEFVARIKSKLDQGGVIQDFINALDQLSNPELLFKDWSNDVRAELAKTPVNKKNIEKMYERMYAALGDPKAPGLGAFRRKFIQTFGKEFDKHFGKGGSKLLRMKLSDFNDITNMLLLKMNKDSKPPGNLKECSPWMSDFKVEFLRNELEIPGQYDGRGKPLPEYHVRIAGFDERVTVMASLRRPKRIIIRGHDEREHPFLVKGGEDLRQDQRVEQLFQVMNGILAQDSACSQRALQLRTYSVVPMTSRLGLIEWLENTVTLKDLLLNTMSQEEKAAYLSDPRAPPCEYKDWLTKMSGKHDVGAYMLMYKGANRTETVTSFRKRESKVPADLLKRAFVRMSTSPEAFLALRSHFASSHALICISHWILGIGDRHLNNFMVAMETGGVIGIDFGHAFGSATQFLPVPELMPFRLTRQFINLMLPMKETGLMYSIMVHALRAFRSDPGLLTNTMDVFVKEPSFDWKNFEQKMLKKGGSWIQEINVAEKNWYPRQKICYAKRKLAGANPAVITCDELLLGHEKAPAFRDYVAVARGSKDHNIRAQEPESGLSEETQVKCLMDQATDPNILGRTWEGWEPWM

Compound `O=c1cc(N2CCOCC2)c2cc(-c3cccc(-c4ccccc4)c3)ccc2o1` had a concentration for half-maximal inhibition (IC50) of 1600 nM. This counts as single-digit micromolar.
On to `O=c1cc(N2CCOCC2)c2cc(-c3cc4ccccc4s3)ccc2o1`, for which the 50% inhibitory concentration (IC50) is more than 10000 nM.
In turn, `O=c1oc(N2CCOCC2)cc2c(-c3cccc4c3sc3ccccc34)cccc12` displayed a concentration for half-maximal inhibition (IC50) of 340 nM.
As for `O=c1oc(N2CCOCC2)cc2c(-c3cccc4c3oc3ccccc34)cccc12`, the figure is 330 nM.
As for `O=c1cc(N2CCOCC2)c2cc(-c3cccc4c3sc3ccccc34)ccc2o1`, the figure is more than 10000 nM; as for `O=c1cc(N2CCOCC2)c2cc(-c3cccc4c3oc3ccccc34)ccc2o1`, more than 10000 nM; as for `O=c1cc(N2CCOCC2)c2ccc(-c3ccccc3)cc2o1`, 1700 nM.
`O=c1cc(N2CCOCC2)c2cc(-c3ccccc3)ccc2o1` yielded an IC50 of 1800 nM.
The result for `O=c1cc(N2CCOCC2)c2cc(-c3cccs3)ccc2o1` reads 1200 nM; that for `O=c1oc(N2CCOCC2)cc2ccccc12`, more than 10000 nM; that for `COc1cccc2c(=O)oc(N3CCOCC3)cc12`, 3200 nM.
Turning to `O=c1oc(N2CCOCC2)cc2c(-c3ccccc3)cccc12`, 2600 nM corresponded to half-maximal inhibition (IC50).
`O=c1oc(N2CCOCC2)cc2c(-c3cccc(-c4ccccc4)c3)cccc12`: the IC50 worked out at 680 nM.
`O=c1cc(N2CCOCC2)c2ccc(-c3cc4ccccc4s3)cc2o1` registered an IC50 of more than 10000 nM.
As for `O=c1cc(N2CCOCC2)c2ccc(-c3cccc4c3sc3ccccc34)cc2o1`, the figure is 2100 nM.
As for `O=c1cc(N2CCOCC2)c2ccc(-c3cccc4c3oc3ccccc34)cc2o1`, the figure is 2100 nM; as for `O=c1cc(N2CCOCC2)c2ccc(-c3cccs3)cc2o1`, 600 nM.
For `O=c1cc(N2CCOCC2)c2ccc(-c3cccc(-c4ccccc4)c3)cc2o1`, the concentration for half-maximal inhibition (IC50) is more than 10000 nM.
The result for `CCN1CCN(CC(=O)Nc2ccc(-c3cccc4c(=O)cc(N5CCOCC5)oc34)c3sc4ccccc4c23)CC1` reads 5 nM; that for `COc1ccc2oc(=O)cc(N3CCOCC3)c2c1`, 1700 nM.
Turning to `COc1ccc2c(N3CCOCC3)cc(=O)oc2c1`, the IC50 is 5400 nM.
Take `O=c1cc(N2CCOCC2)oc2c(-c3cccc4c3sc3ccccc34)cccc12`: inhibition was half-maximal at 30 nM (IC50).
For `O=c1cc(N2CCOCC2)oc2ccccc12`, the IC50 is more than 10000 nM.
As for `COc1cccc2c(=O)cc(N3CCOCC3)oc12`, the figure is 1800 nM.
